# In US10265345B2 (priority 2008, dated 2019):
# Where two headings read alike, the source gives them in different places.
# How the values were obtained:
# [1] = test system: acute cerebral ischemia (MCAO) in rats; parameters: species or system Male Wistar rats; conditions: rat, in vivo, 3 mg/kg
# [2] = test system: superoxide dismutase (SOD); type: in vivo, Male Wistar rats; conditions: rat brain tissues, 3 mg/kg, 48 hours after permanent MCAO
# [3] = test system: lactic acid in brain tissues; experiment: Level of lactic acid in brain tissues 48 hours after permanent MCAO; type: in vivo, Male Wistar rats; conditions: rat brain tissues, 3 mg/kg
# [4] = test system: acute cerebral ischemia (MCAO) in rats; type: in vivo, Male Wistar rats; conditions: 3 mg/kg, 5 doses from 2 h after surgery, 48 h
smiles,measurement,setting,value
"CC1=NN(c2ccccc2)C(=O)C1 [Edaravone, edaravone]",Volume (area) of cerebral infarction,[1],decreased significantly
same,SOD Activity,[2],234.66 ± 15.85 U/mg pro
same,SOD Activity,[2]; listed as edaravone,significantly increased
same,Level of Lactic acid,"[3]; model 0.98 ± 0.09, sham 0.37 ± 0.01",0.64 ± 0.08 mmol/g protein
same,Level of Lactic acid,"[3]; model 0.98 ± 0.09, sham 0.37 ± 0.01, listed as edaravone",0.64±0.08 mmol/g protein
same,Scores of MCAO neurological symptoms,[4]; model group 5.3 ± 2.8,4.3 ± 1.6
same,Scores of MCAO neurological symptoms,"[4]; model group 5.3 ± 2.8, listed as edaravone",no significant difference
